# Results from patent US10414811B2, “Protease-resistant lipidated GLP-1 analogs” (MEDIMMUNE LIMITED, priority 2015, dated 2019).
# Where two headings read alike, the source gives them in different places. Numbered stars: 1 amine (or outer) side, 2 acyl side, 3 side chain; on linkers, the order of the positions; unused ones are H or OH. Square brackets hold non-standard residues; d marks the D form. Side chains are listed from the residue outwards. Peptide text beside a SMILES is read from it. * marks the point of attachment. γGlu = O=C(O)[C@H](CCC(=O)[*:2])N[*:1]; Palmitoyl = CCCCCCCCCCCCCCCC(=O)*; αMeF = C[C@](N)(Cc1ccccc1)C(=O)O; αMeK = C[C@](N)(CCCCN)C(=O)O; αMeS = C[C@](N)(CO)C(=O)O; Aib = CC(C)(N)C(=O)O
# Legend:
# Type in all cases: cell-based
# [1] = molecular target: T1, human GLP-1 receptor (GLP-1R) (Homo sapiens, UniProt P43220); assay: cAMP assay, human GLP-1R cells
# T1 construct: expressed in transfected cells
# Procedure, shortened: (§1)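 Peptide-stimulated cAMP measured by two-step HTRF after a 30 min room-temperature incubation with receptor-expressing cells (hGLP-1R, hGIPR at 1×10^5 cells/ml; hGCGR at 2×10^5 cells/ml). Duplicate dilutions; EC50 from 4-parameter logistic fit of % Delta F.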
# [2] = molecular target: T2, human glucagon receptor (GCGR) (Homo sapiens, UniProt P47871); assay: cAMP assay, human GCGR cells; conditions: cAMP assay
# T2 construct: expressed in transfected cells
# Procedure, shortened: as §1
# [3] = molecular target: T3, human glucose-dependent insulinotropic peptide receptor (GIPR) (Homo sapiens, UniProt P48546); assay: cAMP assay, human GIPR cells; conditions: cAMP assay
# T3 construct: expressed in transfected cells
# T3 sequence (P48546 22-466): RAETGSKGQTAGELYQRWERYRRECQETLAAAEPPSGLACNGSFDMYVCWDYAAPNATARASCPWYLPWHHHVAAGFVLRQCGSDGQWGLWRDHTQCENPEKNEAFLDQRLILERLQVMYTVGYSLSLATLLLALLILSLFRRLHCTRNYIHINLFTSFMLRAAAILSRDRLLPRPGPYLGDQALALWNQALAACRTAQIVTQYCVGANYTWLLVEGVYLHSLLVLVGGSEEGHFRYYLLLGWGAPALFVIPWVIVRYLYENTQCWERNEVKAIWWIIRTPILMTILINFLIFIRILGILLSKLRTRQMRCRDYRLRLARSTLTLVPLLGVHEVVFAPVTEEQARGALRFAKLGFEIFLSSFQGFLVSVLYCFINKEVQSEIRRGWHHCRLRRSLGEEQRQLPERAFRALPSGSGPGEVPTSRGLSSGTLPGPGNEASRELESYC
# Procedure, shortened: as §1
# [4] = cAMP assay, first determination (n1), read-out: Primary assay EC50 GLP-1R n1
# [5] = cAMP assay, second determination (n2), read-out: Primary assay EC50 GLP-1R n2
# [6] = mean of n1 and n2, read-out: Mean pM GLP-1R
# [7] = first determination (n1), read-out: Primary assay EC50 Gluc-R (n1)
# [8] = second determination (n2), read-out: Primary assay EC50 Gluc-R (n2)
# [9] = first determination (n1), read-out: Primary assay EC50 GIP-R (n1)
# [10] = second determination (n2), read-out: Primary assay EC50 GIP-R (n2)
# T2 sequence (P47871 26-477): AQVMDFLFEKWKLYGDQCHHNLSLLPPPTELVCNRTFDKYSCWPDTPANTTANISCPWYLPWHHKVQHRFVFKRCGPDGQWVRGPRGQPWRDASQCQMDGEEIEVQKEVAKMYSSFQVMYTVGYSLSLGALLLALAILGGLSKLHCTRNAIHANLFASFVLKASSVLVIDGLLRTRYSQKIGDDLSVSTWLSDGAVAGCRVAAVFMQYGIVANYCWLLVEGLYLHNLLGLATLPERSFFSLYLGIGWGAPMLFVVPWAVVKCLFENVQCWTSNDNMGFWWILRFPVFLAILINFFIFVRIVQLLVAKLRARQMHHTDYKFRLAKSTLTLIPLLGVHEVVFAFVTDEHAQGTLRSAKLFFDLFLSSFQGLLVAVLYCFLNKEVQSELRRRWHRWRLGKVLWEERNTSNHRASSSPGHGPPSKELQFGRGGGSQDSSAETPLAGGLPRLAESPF
# T1 sequence (P43220 24-463): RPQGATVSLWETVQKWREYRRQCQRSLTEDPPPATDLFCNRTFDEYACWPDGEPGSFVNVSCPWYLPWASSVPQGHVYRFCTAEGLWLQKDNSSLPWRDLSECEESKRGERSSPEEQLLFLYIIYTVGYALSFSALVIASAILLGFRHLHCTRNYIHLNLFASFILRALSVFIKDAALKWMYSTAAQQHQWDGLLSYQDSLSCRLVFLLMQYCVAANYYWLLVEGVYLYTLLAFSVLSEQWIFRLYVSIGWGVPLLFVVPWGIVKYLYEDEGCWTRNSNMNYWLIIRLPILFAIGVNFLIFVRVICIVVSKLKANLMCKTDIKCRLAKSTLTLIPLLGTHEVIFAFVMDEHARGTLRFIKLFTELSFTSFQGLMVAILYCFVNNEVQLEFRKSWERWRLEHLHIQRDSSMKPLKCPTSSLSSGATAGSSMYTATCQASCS
Compound,"EC50 [1, 4] [pM]","EC50 [1, 5] [pM]","EC50 [1, 6] [pM]","EC50 [2, 7] [µM]","EC50 [2, 8] [µM]","EC50 [3, 9] [µM]","EC50 [3, 10] [µM]"
CCCCCCCCCCCCCCCC(=O)N[C@@H](CCC(=O)NCCCC[C@H](NC(=O)CNC(=O)[C@H](CCC(=O)O)NC(=O)C(C)(C)NC(=O)[C@@H](N)Cc1c[nH]cn1)C(=O)N[C@@](C)(Cc1ccccc1)C(=O)N[C@H](C(=O)N[C@@H](CO)C(=O)N[C@@H](CC(=O)O)C(=O)N[C@H](C(=O)N[C@@](C)(CO)C(=O)N[C@@H](CO)C(=O)N[C@@](C)(Cc1ccccc1)C(=O)N[C@@H](CC(C)C)C(=O)N[C@@H](CCC(=O)O)C(=O)NCC(=O)N[C@@H](CCC(=O)O)C(=O)N[C@@H](C)C(=O)N[C@@H](C)C(=O)N[C@@](C)(CCCCN)C(=O)N[C@@H](CCC(=O)O)C(=O)N[C@@](C)(Cc1ccccc1)C(=O)N[C@H](C(=O)N[C@@H](C)C(=O)N[C@@](C)(Cc1ccccc1)C(=O)N[C@H](C(=O)N[C@H](C(=O)N[C@@](C)(CCCCN)C(=O)NCC(=O)NCC(N)=O)C(C)C)C(C)C)[C@@H](C)CC)C(C)C)[C@@H](C)O)C(=O)O [compound 95] (H-H[Aib]EGK([γGlu-Palmitoyl])[αMeF]TSDV[αMeS]S[αMeF]LEGEAA[αMeK]E[αMeF]IA[αMeF]VV[αMeK]GG-NH2; N-terminus assumed),260,190,224,≥ 0.028,≥ 0.028,≥ 0.028,≥ 0.028
CCCCCCCCCCCCCCCC(=O)N[C@@H](CCC(=O)NCCCC[C@H](NC(=O)[C@H](CCC(=O)O)NC(=O)C(C)(C)NC(=O)[C@@H](N)Cc1c[nH]cn1)C(=O)N[C@@H](CO)C(=O)N[C@@](C)(Cc1ccccc1)C(=O)N[C@H](C(=O)N[C@@H](CO)C(=O)N[C@@H](CC(=O)O)C(=O)N[C@H](C(=O)N[C@@](C)(CO)C(=O)N[C@@H](CO)C(=O)N[C@@](C)(Cc1ccccc1)C(=O)N[C@@H](CC(C)C)C(=O)N[C@@H](CCC(=O)O)C(=O)NCC(=O)N[C@@H](CCC(=O)O)C(=O)N[C@@H](C)C(=O)N[C@@H](C)C(=O)N[C@@](C)(CCCCN)C(=O)N[C@@H](CCC(=O)O)C(=O)N[C@@](C)(Cc1ccccc1)C(=O)N[C@H](C(=O)N[C@@H](C)C(=O)N[C@@](C)(Cc1ccccc1)C(=O)N[C@H](C(=O)N[C@H](C(=O)N[C@@](C)(CCCCN)C(=O)NCC(=O)NCC(N)=O)C(C)C)C(C)C)[C@@H](C)CC)C(C)C)[C@@H](C)O)C(=O)O [compound 96] (H-H[Aib]EK([γGlu-Palmitoyl])S[αMeF]TSDV[αMeS]S[αMeF]LEGEAA[αMeK]E[αMeF]IA[αMeF]VV[αMeK]GG-NH2; N-terminus assumed),920,570,746,≥ 0.027,≥ 0.027,≥ 0.027,≥ 0.027
CCCCCCCCCCCCCCCC(=O)N[C@@H](CCC(=O)NCCCC[C@H](NC(=O)C(C)(C)NC(=O)[C@@H](N)Cc1c[nH]cn1)C(=O)NCC(=O)N[C@@H](CO)C(=O)N[C@@](C)(Cc1ccccc1)C(=O)N[C@H](C(=O)N[C@@H](CO)C(=O)N[C@@H](CC(=O)O)C(=O)N[C@H](C(=O)N[C@@](C)(CO)C(=O)N[C@@H](CO)C(=O)N[C@@](C)(Cc1ccccc1)C(=O)N[C@@H](CC(C)C)C(=O)N[C@@H](CCC(=O)O)C(=O)NCC(=O)N[C@@H](CCC(=O)O)C(=O)N[C@@H](C)C(=O)N[C@@H](C)C(=O)N[C@@](C)(CCCCN)C(=O)N[C@@H](CCC(=O)O)C(=O)N[C@@](C)(Cc1ccccc1)C(=O)N[C@H](C(=O)N[C@@H](C)C(=O)N[C@@](C)(Cc1ccccc1)C(=O)N[C@H](C(=O)N[C@H](C(=O)N[C@@](C)(CCCCN)C(=O)NCC(=O)NCC(N)=O)C(C)C)C(C)C)[C@@H](C)CC)C(C)C)[C@@H](C)O)C(=O)O [compound 97] (H-H[Aib]K([γGlu-Palmitoyl])GS[αMeF]TSDV[αMeS]S[αMeF]LEGEAA[αMeK]E[αMeF]IA[αMeF]VV[αMeK]GG-NH2; N-terminus assumed),≥ 28000,≥ 28000,≥ 27800,≥ 0.028,≥ 0.028,≥ 0.028,≥ 0.028
